Where two headings read alike, the source gives them in different places.
Assays:
wild-type enzyme RBS [1] = assay type: biochemical, Burkholderia sp. YT strain
wild-type enzyme RBS [2] = assay: Reaction inhibition of wild-type enzyme RBS by various compounds; assay type: biochemical, Burkholderia sp. YT strain; conditions: 3-quinuclidinone 5 mM, NADPH 0.25 mM, pH 6.5, 30°C
Protocol: A cell-free extract of the wild-type enzyme was obtained as in Reference Example 4. The 3-quinuclidinone reduction activity of this cell-free extract was measured, and given as activity without inhibitor. The cell-free extract was added to 100 mM phosphate buffer (pH 6.5) containing the compounds shown in Table 2, 3-quinuclidinone (5 mM) and the coenzyme NADPH (0.25 mM), and reacted for 1 minute at 30°C, and reduction activity of 3-quinuclidinone was calculated from the rate of decrease in absorbancy at 340 nm.
Relative activity was calculated by the following formula, and used as an indicator of reaction inhibition by the various compounds. Relative activity (%) = [enzyme activity in presence of compound]/[enzyme activity without inhibitor] × 100 [formula]

Compound	Remaining activity (%) (wild-type enzyme RBS [1]; pH 6.5)	Remaining activity (%) (wild-type enzyme RBS [1]; pH 6.5, 310000 µM)	Remaining activity (%) (wild-type enzyme RBS [1]; pH 6.5, 620000 µM)	Relative activity (%) (wild-type enzyme RBS [2]; additive 0.31 M, 310000 µM)	Relative activity (%) (wild-type enzyme RBS [2]; additive 0.62 M, 620000 µM)
OC(CCCl)c1cccs1 (stereo not drawn) [3-Chloro-1-(2-thienyl)propan-1-ol]	0	–	–	–	–
O=C(CCCl)c1cccs1 [3-Chloro-1-(2-thienyl)propan-1-one]	0	–	–	–	–
Cl.O=C1CN2CCC1CC2 [3-Quinuclidinone hydrochloride]	–	73	44	–	–
CC(C)=O [Acetone]	80	–	–	–	–
CC(=O)c1ccccc1 [Acetophenone]	81	–	–	–	–
CC(=O)c1cccs1 [Acetylthiophene]	72	–	–	–	–
O=C(CCl)c1ccccc1 [Phenacyl chloride]	0	–	–	–	–
O=C(CCl)c1cccc(Cl)c1 [m-chlorophenacyl chloride]	0	–	–	–	–
Potassium chloride	–	46	26	14	5
Sodium chloride	–	46	24	15	3
Sodium sulfate	–	76	79	31	17

From EP2562253B1 (priority 2010, dated 2011)
